Laboratory results taken from patent US20210069145A1, “COMPOSITIONS AND METHODS FOR REDUCING A FATTY ACID DESATURATION INDEX IN A SUBJECT IN NEED THEREOF” (Amarin Pharmaceuticals Ireland Limited, priority 2013, published 2021).

Columns and labels:
[1] = system: fatty acid desaturation index (FADI), plasma; assay: Fatty acid desaturation index (FADI) ratios in plasma, 12-week placebo-controlled study; format: in vivo, human; settings: 4 g/day, 12 weeks, placebo-adjusted, from baseline
Procedure: (§1) A multi-center, placebo-controlled, randomized, double-blind, 12-week study was performed to evaluate the efficacy and safety of >96% E-EPA in patients with fasting triglyceride levels ≥200 mg/dl and <500 mg/dl despite statin therapy (the mean of two qualifying entry values needed to be ≥185 mg/dl and at least one of the values needed to be ≥200 mg/dl). The primary objective of the study was to determine the efficacy of >96% E-EPA 2 g daily and 4 g daily, compared to placebo, in lowering fasting TG levels in patients with high risk for cardiovascular disease and with fasting TG levels ≥200 mg/dl and <500 mg/dl, despite treatment to LDL-C goal on statin therapy.
The population for this study was men and women >18 years of age with a body mass index ≤45 kg/m^2 with fasting TG levels greater than or equal to 200 mg/dl and less than 500 mg/dl and on a stable does of statin therapy (with or without ezetimibe). The statin was atorvostatin, rosuvastatin or simvastatin. The dose of statin must have been stable for ≥4 weeks prior to the LDL-C/TG baseline qualifying measurement for randomization. The statin dose was optimized such that the patients are at their LDL-C goal at the LDL-C/TG baseline qualifying measurements. The same statin at the same dose was continued until the study ended. […]
(§2) The primary efficacy variable for the double-blind treatment period was percent change in TG from baseline to Week 12 endpoint. The secondary efficacy variables for the double-blind treatment period included the following: • Percent changes in total cholesterol (TC), high-density lipoprotein cholesterol (HDL-C), LDL-C, calculated non-HDL-C, and very low-density lipoprotein cholesterol (VLDL-C) from baseline to Week 12 endpoint; • Percent change in very low-density lipoprotein TG from baseline to Week 12; • Percent changes in apolipoprotein A-I (apo A-I), apolipoprotein B (apo B), and apo A-I/apo B ratio from baseline to Week 12; • Percent changes in lipoprotein(a) from baseline to Week 12; • Percent changes in LDL particle number and size, measured by nuclear magnetic resonance, from baseline to Week 12; • Percent change in remnant-like particle cholesterol from baseline to Week 12; • Percent change in oxidized LDL from baseline to Week 12; • Changes in FPG and HbA1c from baseline to Week 12; • Change in insulin resistance, as assessed by the homeostasis model index insulin resistance, from baseline to Week 12; • Percent change in lipoprotein associated phospholipase A2 (Lp-PLA2) from baseline to Week 12; • Change in intracellular adhesion molecule-1 from baseline to Week 12; • Change in interleukin-2 from baseline to Week 12; • Change in plasminogen activator inhibitor-1 from baseline to Week 12. […]

[2] = system: Lipoprotein Particle Sizes; assay: Lipoprotein particle sizes, 12-week double-blind placebo-controlled study of >96% E-EPA in statin-treated patients; format: in vivo, human; settings: 12 weeks; for LDL particle size, % Δ / HDL particle size, % Δ / VLDL particle size, % Δ: median change from baseline; for LDL particle size, End / HDL particle size, End / VLDL particle size, End: median
Procedure: as §1
The population for this study was men and women >18 years of age with a body mass index ≤45 kg/m^2 with fasting TG levels greater than or equal to 200 mg/dl and less than 500 mg/dl and on a stable does of statin therapy (with or without ezetimibe). The statin was atorvostatin, rosuvastatin or simvastatin. The dose of statin must have been stable for ≥4 weeks prior to the LDL-C/TG baseline qualifying measurement for randomization. The statin dose was optimized such that the patients are at their LDL-C goal at the LDL-C/TG baseline qualifying measurements. The same statin at the same dose was continued until the study ended.
Approximately 702 patients were randomized at approximately 80 centers in the U.S. The study was a 18- to 20-week, Phase 3, multi-center study consisting of 2 study periods: (1) A 6- to 8-week screening period that included a diet and lifestyle stabilization, a non-statin lipid-altering treatment washout, and an LDL-C and TG qualifying period and (2) A 12-week, double-blind, randomized, placebo-controlled treatment period.
After confirmation of qualifying fasting LDL-C and TG values, eligible patients entered a 12-week, randomized, double-blind treatment period. At Visit 4 (Week 0), patients were randomly assigned to 1 of the following treatment groups: • >96% E-EPA 2 g daily, • >96% E-EPA 4 g daily, or • Placebo.
During the double-blind treatment period, patients were to take 2 capsules (>96% E-EPA or matching placebo) in the morning and 2 capsules in the evening for a total of 4 capsules per day. • Patients in the >96% E-EPA 2 g/day treatment group received 1>96% E-EPA 1 g capsule and 1 matching placebo capsule in the morning and in the evening. • Patients in the >96% E-EPA 4 g/day treatment group received 2>96% E-EPA 1 g capsules in the morning and evening.
as §2

[3] = listed as Ethyl Eicosapentaenoate
[4] = 4 g/day, Hodges-Lehmann median, listed as E-EPA

CC/C=C\C/C=C\C/C=C\C/C=C\C/C=C\CCCC(=O)OCC [ethyl eicosapentaenoate, all-cis eicosa-5,8,11,14,17-pentaenoic acid ethyl ester]
FADI-16 (Palmitoleic acid/Palmitic acid, C16:1/C16:0) % Change, Plasma [1]: significantly reduced
FADI-18 (Oleic acid/Stearic Acid, C18:1/C18:0) % Change, Plasma [1]: significantly reduced
FADI-16 (Palmitoleic acid/Palmitic acid, C16:1/C16:0) % Change, Plasma [1, 3]: −6.8%
FADI-18 (Oleic acid/Stearic Acid, C18:1/C18:0) % Change, Plasma [1, 3]: −9.8%
HDL particle size, Placebo-Adjusted Median Change from Baseline 2 g/d, % ([2]; 2 g/day, Hodges-Lehmann median): 0.0%
LDL particle size, Placebo-Adjusted Median Change from Baseline 2 g/d, % ([2]; 2 g/day, Hodges-Lehmann median): +0.5%
VLDL particle size, Placebo-Adjusted Median Change from Baseline 2 g/d, % ([2]; 2 g/day, Hodges-Lehmann median): −4.8%
LDL particle size, % Δ ([2]; 2 g/day, n = 221): +0.5%
HDL particle size, % Δ ([2]; 2 g/day, n = 222): 0.0%
VLDL particle size, % Δ ([2]; 2 g/day, n = 222): −5.0%
LDL particle size, End ([2]; 2 g/day, n = 221): 20.0 nm
HDL particle size, End ([2]; 2 g/day, n = 222): 8.6 nm
VLDL particle size, End ([2]; 2 g/day, n = 222): 53.2 nm
HDL particle size, Placebo-Adjusted Median Change from Baseline 4 g/d, % ([2]; 4 g/day, Hodges-Lehmann median): significantly reduced
LDL particle size, Placebo-Adjusted Median Change from Baseline 4 g/d, % ([2]; 4 g/day, Hodges-Lehmann median): modest but significant increase
VLDL particle size, Placebo-Adjusted Median Change from Baseline 4 g/d, % ([2]; 4 g/day, Hodges-Lehmann median): significantly reduced
HDL particle size, Placebo-Adjusted Median Change from Baseline 4 g/d, % [2, 4]: −1.2%
LDL particle size, Placebo-Adjusted Median Change from Baseline 4 g/d, % [2, 4]: +0.5%
VLDL particle size, Placebo-Adjusted Median Change from Baseline 4 g/d, % [2, 4]: −7.7%
LDL particle size, % Δ ([2]; 4 g/day, n = 215): +0.5%
HDL particle size, % Δ ([2]; 4 g/day, n = 216): −1.1%
VLDL particle size, % Δ ([2]; 4 g/day, n = 216): −8.1%
LDL particle size, End ([2]; 4 g/day, n = 215): 20.0 nm
HDL particle size, End ([2]; 4 g/day, n = 216): 8.6 nm
VLDL particle size, End ([2]; 4 g/day, n = 216): 51.2 nm
